Results taken from US20250326748A1, “COMPOUNDS AND METHODS FOR MODULATING SPLICING” (REMIX THERAPEUTICS INC., priority 2022, published 2025).
Structures can show the parent of a compound that is named as a salt. Where two headings read alike, the source gives them in different places.

Columns and labels:
Format in all cases: cell-based, human
[1] = tested on: HTT mRNA; test: Splicing RT-qPCR assay, HTT canonical (CJ) and alternative (AJ) junction mRNA; conditions: Homo sapiens; for IC50: canonical junction mRNA; for AC50: alternative junction mRNA, read-out: HTT AJ (AC50, increase in AJ mRNA)
Outline: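 One-step RT-qPCR on cell lysates quantified CJ and AJ isoforms, normalized to PPIA for A673 or GAPDH/GUSB for K562. Cells were exposed for 24 h at 37° C to 11 concentrations in 3-fold steps up to 10 uM, with DMSO ≤0.25%. A673 were grown in DMEM and K562 in IMDM, both with 10% FBS.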

[2] = tested on: SMN2 mRNA; test: Splicing RT-qPCR panel, SMN2 canonical junction (CJ) mRNA; conditions: Homo sapiens, read-out: SMN2 CJ (decrease in CJ mRNA levels, IC50)
Outline: (§1)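 A673 cells (DMEM, 10% FBS) or K562 cells (IMDM, 10% FBS) treated 24 h at 37 °C with an 11-point 3-fold dilution, top 10 uM, DMSO ≤0.25%. Canonical-junction mRNA quantified in lysates by RT-qPCR, normalised to GAPDH, GUSB or PPIA and to DMSO (2^−ΔΔCt), then converted to % response.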

[3] = tested on: Target C mRNA; test: Splicing RT-qPCR panel, Target C canonical junction (CJ) mRNA; conditions: Homo sapiens, read-out: Target C CJ (decrease in CJ mRNA levels, IC50)
Outline: as §1

[4] = 24 h, RT-qPCR, A673 or K562 cells, 24 hours treatment, read-out: HTT CJ (IC50, decrease in CJ mRNA)
[5] = qPCR panel, read-out: HTT CJ (decrease in CJ mRNA levels, IC50)
[6] = RT-qPCR, A673 or K562 cells, 24 hours treatment

SMILES	IC50 [1, 4] [nM]	IC50 [1, 5] [nM]	AC50 [1, 6] [nM]	IC50 [2] [nM]	IC50 [3] [nM]
Cc1c(O)c(-c2ccc3c(C(F)(F)F)c(N4CCNCC4)cnc3n2)cc2cn(C)nc12 [Compound 302, 2,7-dimethyl-5-[6-(piperazin-1-yl)-5-(trifluoromethyl)-1,8-naphthyridin-2-yl]indazol-6-ol]	1000 to 10000	1000 to 10000	> 10000	100 to 1000	> 10000
CN1CCC[C@@H]2CN(c3cnc4nc(-c5cc6cn(C)nc6c(F)c5O)cc(Cl)c4c3)C[C@@H]21 [Compound 303]	100 to 1000	100 to 1000	> 10000	< 100	> 10000
CN1CCC[C@H]2CN(c3cnc4nc(-c5cc6cn(C)nc6c(F)c5O)cc(Cl)c4c3)C[C@H]21 [Compound 304]	1000 to 10000	1000 to 10000	1000 to 10000	< 100	> 10000
C[C@@H]1CN(c2cnc3nc(-c4cc5cn(C)nc5c(F)c4O)cc(C4CC4)c3c2)C[C@H](C)N1 [Compound 305, 5-{4-cyclopropyl-6-[(3R,5S)-3,5-dimethylpiperazin-1-yl]-1,8-naphthyridin-2-yl}-7-fluoro-2-methylindazol-6-ol]	1000 to 10000	1000 to 10000	1000 to 10000	< 100	> 10000
CCN[C@@H]1CCN(c2cnc3nc(-c4cc5cn(C)nc5cc4O)ccc3c2)C1 [Compound 310, 5-{6-[(3R)-3-(ethylamino)468pyrrolidine-1-yl]-1,8-naphthyridin-2-yl}-2-methylindazol-6-ol hydrochloride]	< 100	< 100	100 to 1000	< 100	100 to 1000
CCN[C@H]1CCN(c2cnc3nc(-c4cc5cn(C)nc5cc4O)ccc3c2)C1 [Compound 311, 5-{6-[(3S)-3-(ethylamino)pyrrolidin-1-yl]-1,8-naphthyridin-2-yl}-2-methylindazol-6-ol hydrochloride]	100 to 1000	100 to 1000	1000 to 10000	< 100	1000 to 10000
Cn1cc2cc(-c3ccc4cc(N5CC[C@@H](NCC6CC6)C5)cnc4n3)c(O)cc2n1 [Compound 313]	100 to 1000	100 to 1000	100 to 1000	< 100	100 to 1000
Cn1cc2cc(-c3ccc4cc(N5CC[C@H](NCC6CC6)C5)cnc4n3)c(O)cc2n1 [Compound 314]	100 to 1000	100 to 1000	100 to 1000	< 100	1000 to 10000
CN(C)C1CCN(c2cnc3nc(-c4cc5cn(C)nc5cc4O)ccc3c2)CC1 [Compound 316]	1000 to 10000	1000 to 10000	1000 to 10000	< 100	1000 to 10000
CCN[C@@H]1CCN(c2cnc3nc(-c4cc5cn(C)nc5cc4O)cc(Cl)c3c2)C1 [Compound 317]	< 100	< 100	< 100	< 100	< 100
CCN[C@H]1CCN(c2cnc3nc(-c4cc5cn(C)nc5cc4O)cc(Cl)c3c2)C1 [Compound 318]	100 to 1000	100 to 1000	1000 to 10000	< 100	1000 to 10000
C[C@@H]1CN(c2cnc3nc(-c4ccc5nn(C)cc5c4)cc(Cl)c3c2)C[C@H](C)N1 [Compound 320, 4-chloro-6-[(3R,5S)-3,5-dimethylpiperazin-1-yl]-2-(2-methylindazol-5-yl)-1,8-naphthyridine]	> 10000	> 10000	> 10000	< 100	> 10000
C[C@@H]1CN(c2cnc3nc(-c4cc(C#N)c5nn(C)cc5c4)cc(Cl)c3c2)C[C@H](C)N1 [Compound 325, 5-(4-chloro-6-((3R,5S)-3,5-dimethylpiperazin-1-yl)-1,8-naphthyridin-2-yl)-2-methyl-2H-indazole-7-carbonitrile 2,2,2-trifluoroacetate]	> 10000	> 10000	> 10000	< 100	> 10000
Cc1cn2nc(-c3ccc4cc(N5C[C@@H](C)N[C@@H](C)C5)cnc4n3)cc(C)c2n1 [Compound 330]	100 to 1000	100 to 1000	100 to 1000	< 100	100 to 1000
Cc1cn2nc(-c3cc(Cl)c4cc(N5C[C@@H](C)N[C@@H](C)C5)cnc4n3)cc(C)c2n1 [Compound 335, 4-chloro-2-{2,8-dimethylimidazo[1,2-b]478pyridazine-6-yl}-6-[(3R,5S)-3,5-dimethylpiperazin-1-yl]-1,8-naphthyridine]	100 to 1000	100 to 1000	1000 to 10000	< 100	1000 to 10000
CN[C@H]1CCN(c2cnc3nc(-c4cc(C)c5nc(C)cn5n4)cc(Cl)c3c2)C1 [Compound 340]	100 to 1000	100 to 1000	100 to 1000	< 100	1000 to 10000
CN[C@@H]1CCN(c2cnc3nc(-c4cc(C)c5nc(C)cn5n4)cc(Cl)c3c2)C1 [Compound 341]	< 100	< 100	< 100	< 100	100 to 1000
C[C@@H]1CN(c2cnc3nc(-c4cc5cn(C)nc5cc4O)ccc3c2)C[C@H](C)N1 [Compound 343]	100 to 1000	1000 to 10000	1000 to 10000	< 100	1000 to 10000
Cc1cn2nc(-c3cc(Cl)c4cc(N5CCC(N(C)C)CC5)cnc4n3)cc(C)c2n1 [Compound 348]	100 to 1000	100 to 1000	100 to 1000	< 100	1000 to 10000
Cc1cn2nc(-c3cc(Cl)c4cc(N5CCC(N6CCC6)CC5)cnc4n3)cc(C)c2n1 [Compound 349]	100 to 1000	100 to 1000	100 to 1000	< 100	100 to 1000
Cc1cn2cc(-c3ccc4cc(N5C[C@@H](C)N[C@@H](C)C5)cnc4n3)cc(F)c2n1 [Compound 350]	> 10000	> 10000	> 10000	100 to 1000	> 10000
